One test deals with T1, human EGF-R (Homo sapiens, UniProt P00533).
T1 construct: expressed in transfected cells; host or cells: F/L-HERc cells: murine IL-3-dependent line FDC-P1 infected with recombinant retrovirus (LXSN vector, GP+E86 packaging line) carrying human EGF-R cDNA
Nature of the test: Inhibition of EGF-dependent proliferation of F/L-HERc cells. It counts as cell-based. The conditions noted are these: human EGF 20 ng/ml, 48 hours. The text has this:
(§1) The inhibition of EGF-R-mediated signal transmission can be detected, for example, with cells which express human EGF-R, the survival and proliferation of which depend on stimulation by EGF or TGF-alpha. An interleukin-3 (IL-3)-dependent cell line of murine origin which was changed genetically such that it expresses functional human EGF-R was used here. The proliferation of these cells, called F/L-HERc, can therefore be stimulated either by murine IL-3 or by EGF (see von Ruden, T. et al. in EMBO J. 7, 2749-2756 (1988) and Pierce, J. H. et al. in Science 239, 628-631 (1988)).
(§2) The starting material used for the F/L-HERc cells was the cell line FDC-P1, the preparation of which has been described by Dexter, T. M. et al. in J. Exp. Med. 152, 1036-1047 (1980). Alternatively, however, other growth factor-dependent cells can also be used (see, for example, Pierce, J. H. et al. in Science 239, 628-631 (1988), Shibuya, H. et al. in Cell 70, 57-67 (1992) and Alexander, W. S. et al. in EMBO J. 10, 3683-3691 (1991)). Recombinant retroviruses were used for expression of the human EGF-R cDNA (see Ullrich, A. et al. in Nature 309, 418-425 (1984)), as described in yon Ruden, T. et al., EMBO J. 7, 2749-2756 (1988), with the difference that the retroviral vector LXSN (see Miller, A. D. et al. in BioTechniques 7, 980-990 (1989)) was used for expression of the EGF-R cDNA and the line GP+E86 (see Markowitz, D. et al. in J. Virol. 62, 1120-1124 (1988)) was used as the packing cell.
(§3) The test was carried out as follows:
(§4) F/L HERc cells were cultured at 37° C. and 5% CO2 in RPMI/1640 medium (BioWhittaker), supplemented with 10% foetal bovine serum (FCS, Boehringer Mannheim), 2 mM glutamine (BioWhittaker), standard antibiotics and 20 ng/ml of human EGF (Promega). For investigation of the inhibitory activity of the compounds according to the invention, 1.5×10^4 cells per well were cultured in triplicate in 96-well plates in the above medium (200 μl), proliferation of the cells being stimulated with either EGF (20 ng/ml) or murine IL-3. Culture stocks of the cell line X63/0 mIL-3 were used as the source for IL-3 (see Karasuyama, H. et al. in Eur. J. Immunol. 18, 97-104 (1988)). The compounds according to the invention were dissolved in 100% dimethyl sulphoxide (DMSO) and added to the cultures in various dilutions, the maximum DMSO concentration being 1%. The cultures were incubated at 37° C. for 48 hours.
(§5) To determine the inhibitory activity of the compounds according to the invention, the relative cell count was measured in OD units with Cell Titer 96™ Aqueous Non-Radioactive Cell Proliferation Assay (Promega). The relative cell count was calculated in per cent of the control (F/LHERc cells without inhibitor) and the active compound concentration which inhibits the proliferation of the cells to 50% (IC50) was deduced.

A further test relates to F/L-HERc cells. Description: Inhibition of IL-3-dependent proliferation of F/L-HERc cells. It counts as cell-based. The conditions noted are these: Mus musculus, murine IL-3, 48 hours.
Source text: as §1, §2, §3, §4, §5

T1 sequence (P00533 25-1210): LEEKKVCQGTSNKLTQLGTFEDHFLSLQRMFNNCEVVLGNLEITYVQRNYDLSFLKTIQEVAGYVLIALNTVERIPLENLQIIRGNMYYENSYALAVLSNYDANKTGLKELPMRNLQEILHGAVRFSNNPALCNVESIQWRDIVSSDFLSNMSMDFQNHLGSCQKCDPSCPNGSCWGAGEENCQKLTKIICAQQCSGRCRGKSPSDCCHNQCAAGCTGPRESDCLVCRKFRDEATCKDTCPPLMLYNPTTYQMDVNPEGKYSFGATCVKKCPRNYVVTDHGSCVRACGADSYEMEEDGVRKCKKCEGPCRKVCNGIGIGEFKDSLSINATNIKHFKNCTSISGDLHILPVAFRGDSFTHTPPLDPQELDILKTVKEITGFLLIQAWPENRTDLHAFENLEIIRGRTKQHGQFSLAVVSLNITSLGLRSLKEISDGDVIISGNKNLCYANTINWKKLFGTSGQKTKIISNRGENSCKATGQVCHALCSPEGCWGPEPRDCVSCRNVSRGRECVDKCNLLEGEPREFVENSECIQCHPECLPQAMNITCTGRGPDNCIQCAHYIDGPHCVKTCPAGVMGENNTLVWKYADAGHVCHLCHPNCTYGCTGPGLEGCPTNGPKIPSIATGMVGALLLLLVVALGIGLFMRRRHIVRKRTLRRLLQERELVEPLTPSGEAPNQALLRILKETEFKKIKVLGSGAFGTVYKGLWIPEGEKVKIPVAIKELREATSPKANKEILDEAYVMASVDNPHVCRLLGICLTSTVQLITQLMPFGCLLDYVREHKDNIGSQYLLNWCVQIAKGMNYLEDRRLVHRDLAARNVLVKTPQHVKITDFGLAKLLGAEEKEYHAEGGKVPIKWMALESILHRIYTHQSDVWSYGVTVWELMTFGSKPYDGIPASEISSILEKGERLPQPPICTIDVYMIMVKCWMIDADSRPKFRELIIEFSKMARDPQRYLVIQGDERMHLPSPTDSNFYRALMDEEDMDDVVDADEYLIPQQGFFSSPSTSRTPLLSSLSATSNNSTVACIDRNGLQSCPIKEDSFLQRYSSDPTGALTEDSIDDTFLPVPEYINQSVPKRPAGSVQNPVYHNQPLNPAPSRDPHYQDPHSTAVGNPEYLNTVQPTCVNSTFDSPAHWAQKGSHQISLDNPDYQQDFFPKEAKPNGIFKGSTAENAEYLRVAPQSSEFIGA

Regarding `Cc1cccc(Nc2ncnc3cnc(N4CCN(c5ccccc5)CC4)nc23)c1` [1(3), 4-[(3-Methylphenyl)amino]-6-(1-phenyl-4-piperazinyl)-pyrimido[5,4-d]pyrimidine], the results for the half-maximal inhibitory concentration (IC50) against human EGF-R and in the test with F/L-HERc cells were 2.5 µM and more than 10 µM, respectively.

As to `COc1ncc2ncnc(Nc3cccc(C)c3)c2n1` [1(5), 4-[(3-Methylphenyl)amino]-6-methoxy-pyrimido[5,4-d]pyrimidine], the IC50 (in general, the concentration that inhibits the measured activity by half) was 1 µM on human EGF-R and more than 10 µM with F/L-HERc cells.

Regarding `CCN(CC)c1ncc2ncnc(Nc3cccc(C)c3)c2n1` [1(10), 4-[(3-Methylphenyl)amino]-6-(diethylamino)-pyrimido[5,4-d]pyrimidine], the IC50 is 0.5 µM at human EGF-R and more than 10 µM in the test with F/L-HERc cells.

As for `Cc1cccc(Nc2ncnc3cnc(N)nc23)c1` [1(13), 4-[(3-Methylphenyl)amino]-6-amino-pyrimido[5,4-d]pyrimidine], the values for the IC50 at human EGF-R and with F/L-HERc cells were 0.3 µM and more than 10 µM, respectively.

As for `C#CCNc1ncc2ncnc(Nc3cccc(C)c3)c2n1` [1(23), 4-[(3-Methylphenyl)amino]-6-(propargylamino)-pyrimido[5,4-d]pyrimidine], the IC50 was 0.025 µM against human EGF-R and more than 3 µM with F/L-HERc cells.

In the case of `Cc1cccc(Nc2ncnc3cnc(NC(C)CO)nc23)c1` (stereo not shown) [1(58), 4-[(3-Methylphenyl)amino]-6-(1-hydroxy-2-propylamino)pyrimido[5,4-d]pyrimidine], the half-maximal inhibitory concentration (IC50) was 0.02 µM against human EGF-R and more than 3 µM in the test on F/L-HERc cells.

For `Cc1cccc(Nc2ncnc3cnc(N4CCC(N)CC4)nc23)c1` [1(61), 4-[(3-Methylphenyl)amino]-6-(4-amino-1-piperidinyl)-pyrimido[5,4-d]pyrimidine], the concentration for half-maximal inhibition (IC50) at human EGF-R is 0.032 µM; in the test with F/L-HERc cells, 9 µM.

With `Cc1cccc(Nc2ncnc3cnc(NC4CCN(C)CC4)nc23)c1` [1(62), 4-[(3-Methylphenyl)amino]-6-[(1-methyl-4-piperidinyl)amino]-pyrimido[5,4-d]pyrimidine], the IC50 was 0.04 µM against human EGF-R and more than 1 µM in the test with F/L-HERc cells.

For `Cc1cccc(Nc2ncnc3cnc(N[C@H]4CC[C@H](NC(=O)OC(C)(C)C)CC4)nc23)c1` [1(108), 4-[(3-Methylphenyl)amino]-6-[(trans-4-tert-butyloxycarbonylamino-cyclohexyl)amino]pyrimido[5,4-d]pyrimidine], the IC50 was 0.05 µM at human EGF-R and more than 10 µM with F/L-HERc cells.

On to `Cc1cccc(Nc2ncnc3cnc(NC4CCC(=O)CC4)nc23)c1` [1(109), 4-[(3-Methylphenyl)amino]-6-[(4-oxo-cyclohexyl)amino]pyrimido[5,4-d]pyrimidine], for which the values for the IC50 against human EGF-R and with F/L-HERc cells were 0.015 µM and 10 µM, respectively.

`O[C@H]1CC[C@H](Nc2ncc3ncnc(Nc4cccc(Cl)c4)c3n2)CC1` [1(110), 4-[(3-Chlorophenyl)amino]-6-[(trans-4-hydroxycyclohexyl)amino]pyrimido[5,4-d]pyrimidine]: the IC50 at human EGF-R is 0.002 µM; in the test on F/L-HERc cells, more than 10 µM.

In the case of `Fc1ccc(Nc2ncnc3cnc(NCCN4CCOCC4)nc23)cc1Cl` [1(129), 4-[(3-Chloro-4-fluoro-phenyl)amino]-6-[2-(morpholino)-ethylamino]-pyrimido[5,4-d]pyrimidine], the IC50 against human EGF-R is 0.008 µM; in the test on F/L-HERc cells it was more than 20 µM.

`Cc1cccc(Nc2ncnc3cnc(N[C@H]4CC[C@H](C(=O)O)CC4)nc23)c1` [1(134), 4-[(3-Methylphenyl)amino]-6-[trans-4-carboxy-cyclohexylamino]-pyrimido[5,4-d]pyrimidine]: the half-maximal inhibitory concentration (IC50) is 0.013 µM against human EGF-R and more than 10 µM with F/L-HERc cells.

With `Cc1cccc(Nc2ncnc3cnc(N[C@H]4CC[C@H](C(=O)N5CCOCC5)CC4)nc23)c1` [1(140), 4-[(3-Methylphenyl)amino]-6-[trans-4-(morpholinocarbonyl)cyclohexylamino]-pyrimido[5,4-d]pyrimidine], the IC50 against human EGF-R was 0.005 µM; in the test with F/L-HERc cells, more than 10 µM.

On to `Cc1cccc(Nc2ncnc3cnc(NC4CCOCC4)nc23)c1` [1(170), 4-[(3-Methylphenyl)amino]-6-(4-tetrahydropyranylamino)-pyrimido[5,4-d]pyrimidine], for which the figures for the IC50 against human EGF-R and in the test on F/L-HERc cells were 0.015 µM and more than 10 µM, respectively.

For the compound `CC(CO)(CO)Nc1ncc2ncnc(Nc3ccc(Cl)c(F)c3)c2n1` [1(183), 4-[(4-Chloro-3-fluoro-phenyl)amino]-6-(1,3-dihydroxy-2-methyl-2-propylamino)-pyrimido[5,4-d]pyrimidine], the IC50 is 0.005 µM at human EGF-R and more than 20 µM with F/L-HERc cells.

Regarding `Cc1cccc(Nc2ncnc3cnc(Nc4ccc(N5CCCC5CO)cc4)nc23)c1` (stereo not shown) [1(193), 4-[(3-Methylphenyl)amino]-6-[4-(2-hydroxymethyl-1-pyrrolidinyl)phenylamino]-pyrimido[5,4-d]pyrimidine], the IC50 against human EGF-R came to 0.004 µM; with F/L-HERc cells, 10 µM.

For the compound `Cc1cccc(Nc2ncnc3cnc(NCC4COCCOCCOCCOCCO4)nc23)c1` (stereo not shown) [1(197)], the IC50 was 0.9 µM at human EGF-R and 10 µM in the test on F/L-HERc cells.

Consider `N#Cc1cc(Nc2ncnc3cnc(N[C@H]4CC[C@H](O)CC4)nc23)ccc1N` [1(201), 4-[(4-Amino-3-cyano-phenyl)amino]-6-[(trans-4-hydroxycyclohexyl)-amino]-pyrimido[5,4-d]pyrimidine], for which the IC50 against human EGF-R is 0.032 µM; in the test with F/L-HERc cells, more than 10 µM.

In the case of `O[C@H]1CC[C@H](Nc2ncc3ncnc(Nc4ccc(F)c(Cl)c4)c3n2)CC1` [1(204), 4-[(3-Chloro-4-fluoro-phenyl)amino]-6-[(trans-4-hydroxycyclohexyl)-amino]-pyrimido[5,4-d]pyrimidine], the half-maximal inhibitory concentration (IC50) was 0.0008 µM at human EGF-R and more than 10 µM with F/L-HERc cells.

As to `Nc1c(Cl)cc(Nc2ncnc3cnc(N[C@H]4CC[C@H](O)CC4)nc23)cc1Cl` [1(207), 4-[(4-Amino-3,5-dichloro-phenyl)amino]-6-[(trans-4-hydroxycyclohexyl)-amino]-pyrimido[5,4-d]pyrimidine], the concentration for half-maximal inhibition (IC50) was 0.002 µM against human EGF-R and more than 10 µM in the test on F/L-HERc cells.

`Fc1cc(F)cc(Nc2ncnc3cnc(NC4CC4)nc23)c1` [3(5), 4-[(3,5-Difluorophenyl)amino]-6-(cyclopropylamino)-pyrimido[5,4-d]pyrimidine]: the half-inhibitory concentration (IC50) against human EGF-R is 0.05 µM; with F/L-HERc cells, more than 3 µM.

`FC(F)(F)Oc1cccc(Nc2ncnc3cnc(NC4CC4)nc23)c1` [3(18), 4-[(3-Trifluoromethoxyphenyl)amino]-6-(cyclopropylamino)-pyrimido[5,4-d]pyrimidine]: the IC50 is 0.05 µM against human EGF-R and more than 3 µM in the test on F/L-HERc cells.

Regarding `N#Cc1cccc(Nc2ncnc3cnc(NC4CC4)nc23)c1` [3(19), 4-[(3-Cyanophenyl)amino]-6-(cyclopropylamino)-pyrimido[5,4-d]pyrimidine], the values for the IC50 at human EGF-R and in the test on F/L-HERc cells were 0.015 µM and more than 3 µM, respectively.

On to `O=[N+]([O-])c1cccc(Nc2ncnc3cnc(NC4CC4)nc23)c1` [3(45), 4-[(3-Nitrophenyl)amino]-6-(cyclopropylamino)-pyrimido[5,4-d]pyrimidine], for which the IC50 against human EGF-R is 0.02 µM; in the test with F/L-HERc cells it was more than 1 µM.

On to `Brc1cccc(Nc2ncnc3cncnc23)c1` [4(1), 4-[(3-Bromophenyl)amino]-pyrimido[5,4-d]pyrimidine], for which the IC50 against human EGF-R is 2 µM; with F/L-HERc cells it was more than 10 µM.

The values above are taken from patent US5707989A, “Pyrimido[5,4-D]pyrimidines, medicaments comprising these compounds, their use and processes for their preparation” (Dr. Karl Thomae GmbH, priority 1994, dated 1998).
